According to ChEMBL document CHEMBL1201862, “PubChem BioAssay data set” (2004):
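Protocol summary: plate cells (96-well), add compound at 5 concentrations, incubate 48 h, interpolate endpoints linearly. GI50 marks 50% less growth.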 Active and inactive are the calls of the source. Rule as the data show it: active = GI50 up to about 1.1 µM and inactive = higher.

Tests used:
Assay in all cases: growth of human tumour cells (NCI), 48 h
OVCAR-8 = test system: OVCAR-8
OVCAR-3 = test system: OVCAR-3
OVCAR-5 = test system: OVCAR-5
SW-620 = test system: SW-620
RPMI-8226 = test system: RPMI-8226
Hs-578T = test system: Hs-578T
PC-3 = test system: PC-3
M14 = test system: M14
SF-295 = test system: SF-295
SF-268 = test system: SF-268
HOP-62 = test system: HOP-62
NCI-H460 = test system: NCI-H460
NCI-H23 = test system: NCI-H23
OVCAR-4 = test system: OVCAR-4
T47D = test system: T47D
K562 = test system: K562
HOP-92 = test system: HOP-92
UACC-62 = test system: UACC-62
CAKI-1 = test system: CAKI-1
SK-MEL-5 = test system: SK-MEL-5

SMILES | GI50 (OVCAR-8) | GI50 (OVCAR-3) | GI50 (OVCAR-5) | GI50 (SW-620) | GI50 (RPMI-8226) | GI50 (Hs-578T) | GI50 (PC-3) | GI50 (M14) | GI50 (SF-295) | GI50 (SF-268) | GI50 (HOP-62) | GI50 (NCI-H460) | GI50 (NCI-H23) | GI50 (OVCAR-4) | GI50 (T47D) | GI50 (K562) | GI50 (HOP-92) | GI50 (UACC-62) | GI50 (CAKI-1) | GI50 (SK-MEL-5)
Cn1c(=O)nc2n(-c3ccc(Cl)cc3)c3cc(Cl)ccc3nc-2c1=O | 2.72 µM (inactive) | 1.95 µM (inactive) | 15 µM (inactive) | 2.12 µM (inactive) | 3.79 µM (inactive) | 2.48 µM (inactive) | 9.42 µM (inactive) | 2.07 µM (inactive) | 10.9 µM (inactive) | 3.08 µM (inactive) | 18.1 µM (inactive) | 10 µM (inactive) | 3.33 µM (inactive) | 1.32 µM (inactive) | 0.92 µM (active) | 2.37 µM (inactive) | 7.31 µM (inactive) | 1.88 µM (inactive) | 10.9 µM (inactive) | 1.67 µM (inactive)
C[C@]12OC(=O)[C@]3(O)CC[C@H]4[C@@H](C[C@@H](O)[C@@]5(Cl)CC=CC(=O)[C@]45C)[C@]45OCC6C(=O)O[C@@H]1C[C@@]6(C)[C@H](C4=O)[C@@]32O5 (stereo partly drawn) | 1.41 µM (inactive) | 1.5 µM (inactive) | 1.4 µM (inactive) | 0.494 µM (active) | 0.596 µM (active) | 6.44 µM (inactive) | 2.3 µM (inactive) | 1.13 µM (inactive) | 3.05 µM (inactive) | 0.767 µM (active) | 2.78 µM (inactive) | 1.89 µM (inactive) | 0.542 µM (active) | 3.78 µM (inactive) | 1.82 µM (inactive) | 0.469 µM (active) | 1.42 µM (inactive) | 0.879 µM (active) | 0.787 µM (active) | 1.56 µM (inactive)
O=C(NNC(=S)Nc1ccccc1)C12CC3CC(CC(C3)C1)C2 | 21.7 µM (inactive) | 10.6 µM (inactive) | 59.4 µM (inactive) | 24.2 µM (inactive) | 17.3 µM (inactive) | > 74.3 µM (inactive) | 18.2 µM (inactive) | 13.8 µM (inactive) | 11.4 µM (inactive) | 17.1 µM (inactive) | 35.2 µM (inactive) | 7.23 µM (inactive) | 31.8 µM (inactive) | 29.2 µM (inactive) | 27.6 µM (inactive) | 12.7 µM (inactive) | 30.1 µM (inactive) | 13.7 µM (inactive) | 21.9 µM (inactive) | 8.53 µM (inactive)
O=C1/C(=C/C=C/c2ccccc2)CCC1CNc1ccc(Br)cc1 (stereo not drawn) | > 100 µM (inactive) | > 100 µM (inactive) | > 100 µM (inactive) | 88.7 µM (inactive) | 5.47 µM (inactive) | > 100 µM (inactive) | 79.3 µM (inactive) | 77.6 µM (inactive) | > 100 µM (inactive) | > 100 µM (inactive) | > 100 µM (inactive) | 72.1 µM (inactive) | > 100 µM (inactive) | 57.7 µM (inactive) | 34.1 µM (inactive) | 27.1 µM (inactive) | > 100 µM (inactive) | 6.92 µM (inactive) | > 100 µM (inactive) | 47.5 µM (inactive)
Cc1cc(C(O)CNC(C)CCn2cnc3c2c(=O)n(C)c(=O)n3C)ccc1O (stereo not drawn) | > 100 µM (inactive) | > 100 µM (inactive) | > 100 µM (inactive) | > 100 µM (inactive) | > 100 µM (inactive) | > 100 µM (inactive) | > 100 µM (inactive) | > 100 µM (inactive) | > 100 µM (inactive) | > 100 µM (inactive) | > 100 µM (inactive) | > 100 µM (inactive) | > 100 µM (inactive) | > 100 µM (inactive) | > 100 µM (inactive) | > 100 µM (inactive) | > 100 µM (inactive) | > 100 µM (inactive) | > 100 µM (inactive) | > 100 µM (inactive)
Cc1cc(C)c(O)c(CN2CCN(C(C)C)CCN(C(C)C)CC2)c1 | 22.2 µM (inactive) | 22.2 µM (inactive) | 18.7 µM (inactive) | 42.8 µM (inactive) | 21.9 µM (inactive) | 24.5 µM (inactive) | 22.3 µM (inactive) | 12.4 µM (inactive) | 15.7 µM (inactive) | 54.3 µM (inactive) | – | 34.7 µM (inactive) | – | 46.6 µM (inactive) | 22 µM (inactive) | 17.9 µM (inactive) | 13.7 µM (inactive) | 27 µM (inactive) | 75.2 µM (inactive) | > 10 µM (inactive)
